{"source": "patent US12378543B2", "about": "“Compositions for hemolysis and coagulation regulation and stabilization of extracellular vesicles” (STRECK LLC, priority 2017, dated 2025)", "tested_on": "cell-free RNA (cfRNA)", "experiment": "Total cfRNA in plasma after whole blood storage (Qubit RNA HS fluorometric analysis)", "details": "preservative added singly on ACD-A background, 7 days at room temperature, FIG. 6", "text": "Plasma was isolated and cfRNA extracted using a commercially available kit (Qiagen, QIAamp Circulating Nucleic Acid Isolation Kit). Resultant cfRNA was quantified using the Qubit RNA HS Assay (Invitrogen). Results are the mean with standard deviation from 3 healthy donors.\nThe working hypothesis for the container (e.g., blood collection tube) that comprises a composition of the disclosure was that cell-free RNA (cfRNA), including messenger RNA, micro-RNA, non-coding RNA, etc., is stable in blood plasma via encapsulation within extracellular vesicles (EVs). Thus, because aspects of the disclosure are directed to stabilizing draw-time concentrations of cfRNA, the goal was to maintain the initial concentration of EVs. […] In the experiments, the functional components of the RNAx BCT are the preservatives imidazolidinyl urea (IDU) and α-cyclodextrin. The experiments were designed to test whether each of the foregoing components acted singly (additive effect) or whether the combination provided an unexpected, more pronounced outcome (synergistic effect).\nOn the background of the basal anti-coagulant, ACD-A, each of the preservatives (i.e., IDU and α-cyclodextrin) was added singly (at the same concentration utilized in the RNAx BCT) or together. […]"}
{"compound": "OC[C@H]1O[C@@H]2O[C@H]3[C@H](O)[C@@H](O)[C@@H](O[C@H]4[C@H](O)[C@@H](O)[C@@H](O[C@H]5[C@H](O)[C@@H](O)[C@@H](O[C@H]6[C@H](O)[C@@H](O)[C@@H](O[C@H]7[C@H](O)[C@@H](O)[C@@H](O[C@H]1[C@H](O)[C@H]2O)O[C@@H]7CO)O[C@@H]6CO)O[C@@H]5CO)O[C@@H]4CO)O[C@@H]3CO", "note": "[α-cyclodextrin]", "values": [{"measurement": "effect on increases in total cfRNA levels (in words)", "value": "did limit increases in levels of cfRNA"}]}
